Publication PMC8862572 (Bioorganic & medicinal chemistry, 2020)
Entries after “also recorded” stand apart in the source; their conditions may differ.

Experiments:
Recombinant human SphK2 = molecular target: T1, Recombinant human SphK2 (Homo sapiens, UniProt Q9NRA0); experiment: Recombinant hSphK2 cell lysate assay; type: biochemical; conditions: for SphK2 inhibition, in words: compound 0.3 μM; for inhibition at 0.3 µM: read-out: % SphK2 Inhibition
T1 sequence (Q9NRA0 1-654): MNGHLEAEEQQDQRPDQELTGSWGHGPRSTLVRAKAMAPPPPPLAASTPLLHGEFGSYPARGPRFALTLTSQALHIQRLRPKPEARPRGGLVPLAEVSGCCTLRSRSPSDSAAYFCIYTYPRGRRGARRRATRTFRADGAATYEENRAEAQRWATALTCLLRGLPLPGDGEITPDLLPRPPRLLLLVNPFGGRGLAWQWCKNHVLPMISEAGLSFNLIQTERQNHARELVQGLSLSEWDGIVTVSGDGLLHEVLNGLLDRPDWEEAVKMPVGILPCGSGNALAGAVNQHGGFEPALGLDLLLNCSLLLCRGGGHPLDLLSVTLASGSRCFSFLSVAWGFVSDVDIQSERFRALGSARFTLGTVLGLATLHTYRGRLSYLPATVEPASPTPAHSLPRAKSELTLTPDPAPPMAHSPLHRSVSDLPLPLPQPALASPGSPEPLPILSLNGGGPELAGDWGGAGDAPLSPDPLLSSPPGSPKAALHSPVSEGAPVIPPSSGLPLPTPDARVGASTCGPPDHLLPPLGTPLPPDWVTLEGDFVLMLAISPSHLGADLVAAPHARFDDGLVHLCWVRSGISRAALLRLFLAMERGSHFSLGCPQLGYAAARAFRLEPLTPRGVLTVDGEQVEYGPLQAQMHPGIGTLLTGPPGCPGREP

Recombinant human SphK1 [1] = molecular target: T2, Recombinant human SphK1 (Homo sapiens, UniProt Q9NYA1); conditions: compound 1.0 μM
T2 sequence (Q9NYA1 whole entry): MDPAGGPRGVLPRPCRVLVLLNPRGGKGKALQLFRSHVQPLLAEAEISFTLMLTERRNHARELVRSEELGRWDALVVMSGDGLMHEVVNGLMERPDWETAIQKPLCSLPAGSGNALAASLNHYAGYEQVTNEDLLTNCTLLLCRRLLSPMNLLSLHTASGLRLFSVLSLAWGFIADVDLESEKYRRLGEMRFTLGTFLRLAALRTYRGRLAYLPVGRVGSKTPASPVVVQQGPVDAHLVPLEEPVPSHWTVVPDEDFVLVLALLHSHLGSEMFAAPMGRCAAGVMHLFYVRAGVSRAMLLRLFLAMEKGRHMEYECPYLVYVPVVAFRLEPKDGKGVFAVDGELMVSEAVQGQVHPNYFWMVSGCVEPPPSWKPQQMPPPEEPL

Recombinant human SphK1 [2] = molecular target: T2, Recombinant human SphK1; experiment: biochemical; conditions: read-out: % SphK1 Inhibition
U937 cells = experiment: U937 cell culture assay, S1P levels by LC-MS/MS; conditions: 0.1 μM to 1.0 μM, 2.0 h incubation

Row | Compound | SphK2 inhibition, in words (Recombinant human SphK2) | SphK1 inhibition, in words (Recombinant human SphK1 [1]) | inhibition at 1 µM (Recombinant human SphK1 [2]) | inhibition at 0.3 µM (Recombinant human SphK2) | S1P levels in U937 cells (U937 cells)
1 | CCCCCCCCCCc1ccc(CN2CCC[C@@H]2CO)cc1.Cl [22b, (R)-(1-(4-decylbenzyl)pyrrolidin-2-yl)methanol] | strong inhibitory activity |  |  |  | 
2 | CC(C)(C)c1cccc(Oc2ccc(CN3CCC[C@@H]3CO)cc2)c1.Cl [18b, (R)-(1-(4-(3-(tert-butyl)phenoxy)benzyl)pyrrolidin-2-yl)methanol] | minimal enzyme inhibition | minimal enzyme inhibition |  |  | 
3 | Cc1ccc(CCc2ccc(CN3CCC[C@@H]3CO)cc2)cc1 [22f, (R)-(1-(4-(4-methylphenethyl)benzyl)pyrrolidin-2-yl)methanol] |  |  | 4 ± 4% | 3 ± 5% | 
4 | CCCCCCCCCCCc1ccc(CN2CCC[C@@H]2COC(C)=O)cc1 [22h, (R)-(1-(4-undecylbenzyl)pyrrolidin-2-yl)methyl acetate] |  |  | 47 ± 6% | 26 ± 6% | 
5 | Cl.OC[C@H]1CCCN1Cc1ccc(Oc2cccc(-c3ccccc3)c2)cc1 [18d, (R)-(1-(4-([1,1′-biphenyl]-3-yloxy)benzyl)pyrrolidin-2-yl)methanol] | minimal enzyme inhibition | minimal enzyme inhibition |  |  | 
6 | CCCCCc1ccc(CCc2ccc(CN3CCC[C@@H]3CO)cc2)cc1 [29c, (R)-(1-(4-(4-pentylphenethyl)benzyl)pyrrolidin-2-yl)methanol] |  |  | 36 ± 3% | 15 ± 5% | 
7 | COc1ccc(CCc2ccc(CN3CCC[C@@H]3CO)cc2)cc1 [22g, (R)-(1-(4-(4-methoxyphenethyl)benzyl)pyrrolidin-2-yl)methanol] |  |  | 8 ± 7% | 2 ± 2% | 
8 | CCCCCCCCCCCCc1ccc(CN2CCC[C@@H]2CO)cc1.Cl [22d, (R)-(1-(4-dodecylbenzyl)pyrrolidin-2-yl)methanol] | strong inhibitory activity |  |  |  | decreased S1P levels; also recorded: concentration-dependent reduction of S1P levels
9 | CCCCCCCOc1ccc(CN2CCC[C@@H]2CO)cc1.Cl [12a, (R)-(1-(4-(heptyloxy)benzyl)pyrrolidin-2-yl)methanol] | poor SphK1 and 2 inhibition | poor SphK1 and 2 inhibition |  |  | 

Continued, in another order:

Row | SphK2 inhibition, in words (Recombinant human SphK2) | SphK1 inhibition, in words (Recombinant human SphK1 [1]) | inhibition at 1 µM (Recombinant human SphK1 [2]) | inhibition at 0.3 µM (Recombinant human SphK2) | Compound | S1P levels in U937 cells (U937 cells)
10 |  |  | 31 ± 4% |  | CCCCc1ccc(CCc2ccc(CN3CCC[C@@H]3CO)cc2)cc1 [29b, (R)-(1-(4-(4-butylphenethyl)benzyl)pyrrolidin-2-yl)methanol] | 
11 |  |  | 23 ± 3% | 0% | Cc1cc(/C=C/c2ccc(C(C)(C)C)cc2)ccc1CN1CCC[C@@H]1CO [25a, (R,E)-(1-(4-(4-(tert-butyl)styryl)-2-methylbenzyl)pyrrolidin-2-yl)methanol] | 
12 | poor SphK1 and 2 inhibition | poor SphK1 and 2 inhibition |  |  | Cl.OC[C@H]1CCCN1Cc1ccc(Oc2ccccc2)cc1 [18a, (R)-(1-(4-phenoxybenzyl)pyrrolidin-2-yl)methanol] | 
13 | weak SphK inhibition | weak SphK inhibition |  |  | Cl.OC[C@H]1CCCN1Cc1ccc(OCc2ccc(C(F)(F)F)cc2)cc1 [12e, (R)-(1-(4-((4-(trifluoromethyl)benzyl)oxy)benzyl)pyrrolidin-2-yl)methanol] | 
14 |  |  | 45 ± 1% | 13 ± 5% | OC[C@H]1CCCN1Cc1ccc(/C=C/c2cccc(C(F)(F)F)c2)cc1 [25b, (R,E)-(1-(4-(3-(trifluoromethyl)styryl)benzyl)pyrrolidin-2-yl) methanol] | 
15 |  |  | 29 ± 8% | 3 ± 4% | CCCc1ccc(CCc2ccc(CN3CCC[C@@H]3CO)cc2)cc1 [29a, (R)-(1-(4-(4-propylphenethyl)benzyl)pyrrolidin-2-yl)methanol] | 
